# Values of other authors, collected in US8889725B2, “Sugar-based bait” (Bayer Cropscience AG, priority 2006, dated 2014).
# Test system: Tapinoma sessile
compound,measurement,setting,value
"CCOP(=S)(OCC)O/N=C(\C#N)c1ccccc1 [phoxim, O,O-diethylthionophosphoryl-α-oximinophenylacetonitrile]",control of the ants,baits with 0.05% by weight of phoxim in blackberry syrup or blackberry jam,complete control
same,acceptance of the bait by ants,baits with 0.5% to 1% by weight of phoxim,repellent action
